Measurements: PubChem BioAssay AID434951 (Broad Institute, 2010)
Calls of active or inactive are those of the source.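 Rule for the calls: active = a fitted half-maximal concentration EC50 for the rise in nuclear signal no higher than ten times the top dose tested; inconclusive = flat fit with activity between 30% and 70%, or unusable fit; inactive = EC50 beyond ten times the top dose.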

Molecular target: Hypoxia-inducible factor 1-alpha (Homo sapiens) (UniProt Q16665)
Experiment: HIF pathway activation, GFP-HIF1alpha translocation – imaging, fluorescence, U2OS GFP-HIF1alpha, confirmation (AID 434951)
Settings: U2OS GFP-HIF1alpha nuclear intensity, high-content imaging

Chain of Hypoxia-inducible factor 1-alpha (Homo sapiens) (Q16665 whole entry, looked up): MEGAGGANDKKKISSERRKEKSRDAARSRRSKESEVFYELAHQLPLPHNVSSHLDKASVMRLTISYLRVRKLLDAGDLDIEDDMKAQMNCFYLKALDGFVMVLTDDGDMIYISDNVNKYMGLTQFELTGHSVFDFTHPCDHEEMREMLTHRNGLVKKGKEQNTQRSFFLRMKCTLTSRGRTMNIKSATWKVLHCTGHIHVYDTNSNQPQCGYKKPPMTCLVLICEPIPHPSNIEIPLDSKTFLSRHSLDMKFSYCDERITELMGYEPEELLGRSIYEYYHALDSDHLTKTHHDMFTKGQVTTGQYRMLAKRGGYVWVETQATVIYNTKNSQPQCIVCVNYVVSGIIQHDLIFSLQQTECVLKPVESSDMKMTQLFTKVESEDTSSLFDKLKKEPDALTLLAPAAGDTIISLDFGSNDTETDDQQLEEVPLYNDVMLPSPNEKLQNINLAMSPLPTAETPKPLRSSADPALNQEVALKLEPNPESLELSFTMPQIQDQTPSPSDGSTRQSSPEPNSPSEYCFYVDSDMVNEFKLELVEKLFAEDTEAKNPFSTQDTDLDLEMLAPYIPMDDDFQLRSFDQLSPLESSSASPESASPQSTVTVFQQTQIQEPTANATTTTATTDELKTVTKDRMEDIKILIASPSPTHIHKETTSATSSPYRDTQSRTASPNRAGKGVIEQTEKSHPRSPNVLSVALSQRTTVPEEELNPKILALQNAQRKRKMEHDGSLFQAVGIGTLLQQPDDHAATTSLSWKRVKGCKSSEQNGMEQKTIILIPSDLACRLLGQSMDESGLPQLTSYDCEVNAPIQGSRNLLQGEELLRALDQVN

SMILES: CC12CC3(C)CC(C)(C1)CC(C(=O)NCCc1ccc(S(N)(=O)=O)cc1)(C2)C3
- EC50: > 35 µM (inactive)

SMILES: CCc1nc(SCC(=O)c2ccccc2)c2ccccc2n1
- EC50: > 35 µM (inactive)

SMILES: COc1ccccc1N1CCN(CCCNC(=O)C2CCCN(c3ncnc4c3nc3n4CCCCC3)C2)CC1 (stereo not given)
- EC50: > 35 µM (inactive)

SMILES: CCC1CCc2sc(C(=O)NCc3ccccn3)cc2C1 (stereo not given)
- EC50: > 35 µM (inactive)

SMILES: COc1ccc(C(=O)Nc2ccccc2C(=O)N/N=C/c2ccccn2)cc1OC
- EC50: 10.6 µM

SMILES: Cc1ccc(OC(C)C(=O)N2CC(=O)Nc3ccccc32)cc1 (stereo not given)
- EC50: > 35 µM (inactive)

SMILES: Cc1cc(C(=O)O)oc(=O)c1
- EC50: > 35 µM (inactive)

SMILES: Cc1ccc(C)c(OCC(=O)O/N=C(\N)c2cccc([N+](=O)[O-])c2)c1
- EC50: > 35 µM (inactive)

SMILES: CCOc1ccc(NC(=O)CSc2nnc(Cn3cnc4ccccc43)n2C)cc1
- EC50: > 35 µM (inactive)

SMILES: CCN(CC)CCNC1=CC(=O)OC12CCCCC2
- EC50: > 35 µM (inactive)

SMILES: CCOC(=O)c1c(-c2ccccc2)oc2ccc(OCC(O)CN(C)C)cc12 (stereo not given)
- EC50: 33.8 µM

SMILES: O=C(CCc1ccccc1)N/N=C/c1cc(Br)ccc1O
- EC50: 13.2 µM

SMILES: C1CCC2(CC1)C1=C(CCCC1)Nc1nnnn12
- EC50: > 35 µM (inactive)

SMILES: COc1ccc(O)c(/C=N/NC(=O)c2ccc(OCc3cccc(Br)c3)cc2)c1
- EC50: 5.72 µM

SMILES: Oc1ccc(CN2CCc3ccccc3C2)c2cccnc12
- EC50: 2.4 µM

SMILES: Oc1ccc(N=Nc2ccc3c(c2)OCCO3)c2cccnc12
- EC50: > 35 µM (inactive)

SMILES: CCOC(=O)CN(C(=O)COc1nc(C)cc(C)c1C#N)c1cccc(Cl)c1
- EC50: > 35 µM (inactive)

SMILES: CC1CCN(S(=O)(=O)c2ccc3c4c2CC(=O)N4CC(C)S3)CC1 (stereo not given)
- EC50: > 35 µM (inactive)

SMILES: Cc1ccc2nc(-c3ccccn3)c(Nc3ccccc3C)n2c1
- EC50: 6.13 µM

SMILES: O=C1CC(Nc2ccccc2)C(=O)N1Cc1ccccc1 (stereo not given)
- EC50: > 35 µM (inactive)

SMILES: OCCC#Cc1ccc(CN2CCN(Cc3ccccc3)C(CCO)C2)cc1 (stereo not given)
- EC50: > 35 µM (inactive)

SMILES: Fc1ccc(CSc2ccc(-c3ccco3)nn2)cc1
- EC50: > 35 µM (inactive)

SMILES: COc1ccc(S(=O)(=O)N2CCOC2CNC(=O)C(=O)NCc2ccc3c(c2)OCO3)cc1OC (stereo not given)
- EC50: > 35 µM (inactive)

SMILES: C=CCn1c(N2CCCCCC2)nc2c1c(=O)[nH]c(=O)n2C
- EC50: > 35 µM (inactive)

SMILES: C1CC1Cc1noc(CN2CCN(CC3CC3)CC2)n1
- EC50: > 35 µM (inactive)

SMILES: O=[N+]([O-])c1cccc(/C=C/c2ccc3cccc(O)c3n2)c1
- EC50: 33.9 µM

SMILES: Oc1c(CN2CCCCC2)cc(COCc2ccccc2)c2cccnc12
- EC50: 11.9 µM

SMILES: CC(=O)Nc1cccc(NC(=O)CS(=O)(=O)c2cn(CC(=O)N3CCOCC3)c3ccccc23)c1
- EC50: > 35 µM (inactive)

SMILES: O=C(CNC(=O)c1ccccc1Br)N/N=C/c1cc(Br)ccc1O
- EC50: 6.52 µM

SMILES: C/C(=N\Nc1nc2ccccc2[nH]1)c1ccccn1
- EC50: 1.8 µM

SMILES: O=C(NC(c1ccccc1)c1ccccc1)C1CCCO1 (stereo not given)
- EC50: > 35 µM (inactive)

SMILES: Cn1nnc2cc(C(=O)N3CCC(c4ccccc4)C3)ccc21 (stereo not given)
- EC50: > 35 µM (inactive)

SMILES: O=C(N/N=C/c1ccccc1O)c1cccc(C(F)(F)F)c1
- EC50: 14.3 µM

SMILES: O=C(Nc1ccccc1)N(C1=NCCCCS1)c1cccc2ccccc12
- EC50: > 35 µM (inactive)

SMILES: Cc1ccc(C)c(OCC(=O)N2CCN(Cc3ccc4c(c3)OCO4)CC2)c1
- EC50: > 35 µM (inactive)

SMILES: COc1cc(CC(=O)Nc2ccc(Cl)c(C(F)(F)F)c2)cc(OC)c1OC
- EC50: > 35 µM (inactive)

SMILES: COc1ccc(NC(=O)CSc2nc3c(c(=O)[nH]2)CCC3)cc1OC
- EC50: > 35 µM (inactive)

SMILES: COc1ccc(NC(=O)CCS(=O)(=O)c2ccc3c(c2)CCN3C(C)=O)cc1
- EC50: > 35 µM (inactive)

SMILES: O=C(N/N=C/c1c(O)ccc2ccccc12)c1ccc(CO)nc1
- EC50: 6.6 µM

SMILES: O=C(Nc1ncccc1O)c1ccc(S(=O)(=O)Nc2ccccc2)cc1
- EC50: 9.18 µM

SMILES: Cc1cc([N+](=O)[O-])nn1Cc1ccc(C(=O)N/N=C/c2ccc(O)cc2O)cc1
- EC50: 22.4 µM

SMILES: COc1cccc(C(=O)CN2C(=O)C(C)(C)Oc3ccc(C(=O)N4CCOCC4)cc32)c1
- EC50: > 35 µM (inactive)

SMILES: O=C(NNC(=O)c1ccccc1Br)c1ccc(Cl)cc1
- EC50: > 35 µM (inactive)

SMILES: COc1ccc2ccccc2c1/C=N/Nc1cccc(C(=O)O)c1
- EC50: > 35 µM (inactive)

SMILES: C=CCNC(=S)N/N=C(\C)c1ccccn1
- EC50: 6.53 µM

SMILES: COc1ccc(CSCC(=O)Nc2ccc(S(=O)(=O)N3CCCCCC3)cc2)cc1
- EC50: > 35 µM (inactive)

SMILES: O=C(N/N=C/c1cc(O)ccc1Br)c1cccnc1
- EC50: > 35 µM (inactive)

SMILES: Cc1nc(-n2[nH]c3c(c2=O)CCCC3)[nH]c(=O)c1Cc1ccccc1
- EC50: 9.42 µM

SMILES: Cc1ccc(/C(=N/Nc2ncnc3ccccc23)C(=O)O)cc1
- EC50: > 35 µM (inactive)

SMILES: CC(C)NC(=O)NC(=O)CSc1nnc(-c2ccccc2F)n1N
- EC50: > 35 µM (inactive)

SMILES: CCN(Cc1ccccc1)C(=O)CCNS(=O)(=O)c1ccc2c(c1)CC(C)N2C(C)=O (stereo not given)
- EC50: > 35 µM (inactive)

SMILES: Nc1ncnc2c1ncn2CCN1CCOCC1
- EC50: > 35 µM (inactive)

SMILES: CCCCC(=O)Nc1ccc(NC(=O)CC)cc1OC
- EC50: > 35 µM (inactive)

SMILES: CCOc1ccc(C(=O)NCC2CCCO2)cc1OCC (stereo not given)
- EC50: > 35 µM (inactive)

SMILES: Cc1cccc(NC(=S)N2CCC(N(C)CC3CCCO3)CC2)c1 (stereo not given)
- EC50: > 35 µM (inactive)

SMILES: CCCCc1nnc(NC(=O)c2ccc3[nH]c(=O)c(=O)[nH]c3c2)s1
- EC50: > 35 µM (inactive)

SMILES: CCN(CC)c1ccc(/C=N/Nc2nc3ccccc3[nH]2)c(O)c1
- EC50: 6.95 µM

SMILES: O=C(NCC(=O)N(Cc1ccco1)C(C(=O)NC1CCCCC1)c1cccnc1)c1cccs1 (stereo not given)
- EC50: > 35 µM (inactive)

SMILES: Cc1ccc(Oc2ncc(CN3CC(C)OC(C)C3)s2)cc1 (stereo not given)
- EC50: > 35 µM (inactive)

SMILES: COc1ccc(NC(=O)Nc2ccc(Br)cn2)cc1
- EC50: > 35 µM (inactive)

SMILES: COc1ccc(OC)c(C2=Nn3c(nnc3-c3cc(C)[nH]n3)SC2)c1
- EC50: > 35 µM (inactive)

SMILES: CC(C)Cc1nnc(NC(=O)CCC(=O)N2CCC3(CC2)OCCO3)s1
- EC50: > 35 µM (inactive)

SMILES: COc1ccccc1C(c1nnnn1CC1CCCO1)N1CCC(C(N)=O)CC1 (stereo not given)
- EC50: > 35 µM (inactive)

SMILES: O=[N+]([O-])c1cc(S(=O)(=O)c2ccc(O)c([N+](=O)[O-])c2)ccc1O
- EC50: > 35 µM (inactive)

SMILES: COc1ccc(C(NC(=O)C(C)C)c2ccc3cccnc3c2O)cc1 (stereo not given)
- EC50: 2.66 µM

SMILES: Cn1c(CC(=O)Nc2ccccc2)cc2ccccc21
- EC50: > 35 µM (inactive)

SMILES: CCC(=O)N1CCc2cc(S(=O)(=O)NCCC(=O)N3CCN(c4cccc(OC)c4)CC3)ccc21
- EC50: > 35 µM (inactive)

SMILES: CCCC(=O)NC(c1ccc(OC)cc1)c1ccc2cccnc2c1O (stereo not given)
- EC50: 7.24 µM

SMILES: CCOC(=O)c1c(NC(=O)CN2C(=O)NC3(CCC(C)CC3)C2=O)sc(C)c1-c1ccc(C)cc1 (stereo not given)
- EC50: 7.59 µM

SMILES: O=c1cc(CO)[nH]cc1OCc1ccccc1
- EC50: > 35 µM (inactive)

SMILES: Cn1cc(CC(=O)N2CCN(c3ccc(Cl)cc3)CC2)c2ccccc21
- EC50: > 35 µM (inactive)

SMILES: Nc1nc2nc(-c3cccs3)cc(C(F)(F)F)n2n1
- EC50: > 35 µM (inactive)

SMILES: COC(=O)[C@H](CCSC)NC(=O)c1cccnc1SC
- EC50: > 35 µM (inactive)

SMILES: CCCC(=O)NC(c1ccccc1Cl)c1ccc2cccnc2c1O (stereo not given)
- EC50: 6.66 µM

SMILES: CC(C)NC(=S)NN=C1c2ccccc2-c2ccccc21
- EC50: > 35 µM (inactive)

SMILES: COc1cccc(Nc2n[nH]c(=S)s2)c1
- EC50: > 35 µM (inactive)

SMILES: COC(=O)CN1C(=O)[C@H]2[C@@H](c3ccc(C)o3)N3C(=O)CN(CC4CC4)C(=O)[C@@]3(Cc3ccccc3)[C@H]2C1=O
- EC50: > 35 µM (inactive)

SMILES: Cc1ccc2nc(SCC(=O)Nc3ccc(Br)cc3)nc(=O)n2c1
- EC50: > 35 µM (inactive)

SMILES: COc1ccccc1/C=C/C(=O)c1ccccc1
- EC50: > 35 µM (inactive)

SMILES: Clc1ccc(CSc2ccc(-c3ccccn3)nn2)cc1
- EC50: 9.44 µM

SMILES: OCCNc1c2ccccc2nc2ccccc12
- EC50: 32.4 µM

SMILES: COC(=O)C1C(=O)N2CCCSC2=C(C#N)C1c1cccs1 (stereo not given)
- EC50: > 35 µM (inactive)

SMILES: CC(=O)Nc1ccc2nc(NC(=O)COc3ccccc3C)sc2c1
- EC50: > 35 µM (inactive)

SMILES: O=C(/C=C/c1ccccc1)NCCc1nc2ccccc2[nH]1
- EC50: > 35 µM (inactive)

SMILES: ON=C1c2cc(OCCN3CCCCC3)ccc2-c2ccc(OCCN3CCCCC3)cc21
- EC50: 8.97 µM

SMILES: CCC(=O)NC(c1cccs1)c1ccc2cccnc2c1O (stereo not given)
- EC50: 5.48 µM

SMILES: COc1ccc(CN2CCNC(=O)C2CC(=O)N(C)CC2CCOCC2)cc1OC (stereo not given)
- EC50: > 35 µM (inactive)

SMILES: O=C1CSCN1c1ccc(Cl)cc1
- EC50: > 35 µM (inactive)

SMILES: CC(C)C(=O)NC(c1ccc(Cl)cc1Cl)c1ccc2cccnc2c1O (stereo not given)
- EC50: 4.88 µM

SMILES: CCCNC(=O)c1cc(-c2ccco2)on1
- EC50: 5.66 µM

SMILES: Oc1ccc2ccccc2c1/C=N/Nc1nnc(-c2ncc[nH]2)c2ccccc12
- EC50: 8.6 µM

SMILES: CCCC(=O)NC(c1ccccc1OC)c1ccc2cccnc2c1O (stereo not given)
- EC50: 5.97 µM

SMILES: O=C(CN(Cc1ccc(F)cc1)C(=O)CCC(=O)Nc1nccs1)NCC1CCCO1 (stereo not given)
- EC50: > 35 µM (inactive)

SMILES: CCCC(=O)NC(c1ccc(C)cc1)c1ccc2cccnc2c1O (stereo not given)
- EC50: 7.22 µM

SMILES: O=C(Cn1nc(-c2ccccc2Cl)ccc1=O)Nc1ccccc1-c1ccccc1
- EC50: > 35 µM (inactive)

SMILES: CC(C)=NOC(=O)c1c(C)noc1-c1snnc1C
- EC50: > 35 µM (inactive)

SMILES: COc1cccc(CN2CCC(N(CCc3ccccc3)Cc3ccccc3)CC2)c1OC
- EC50: > 35 µM (inactive)

SMILES: CC(C)c1cc(-c2cc(C(=O)NCc3ccccc3)on2)nc(NC2CCCC2)n1
- EC50: > 35 µM (inactive)

SMILES: COc1cccc(NC(=S)N(CCCN2CCOCC2)Cc2cn(C)c3ccccc23)c1
- EC50: > 35 µM (inactive)

SMILES: COc1ccccc1CCNS(=O)(=O)c1cc2c3c(c1)C(C)C(=O)N3CCC2 (stereo not given)
- EC50: > 35 µM (inactive)

SMILES: CN(C)S(=O)(=O)c1cccc(NC(=S)N/N=C/c2cc(Br)ccc2O)c1
- EC50: 12.7 µM

SMILES: CCC(=O)c1ccc(N2CCN(C(=O)c3ccc(Br)cc3)CC2)c(F)c1
- EC50: > 35 µM (inactive)

SMILES: N#C/C(=C(/O)c1ccc(F)cc1)c1nc2ccccc2s1
- EC50: > 35 µM (inactive)

SMILES: Cc1c(C(=O)N2CCCCC2)c(S(=O)(=O)NCCc2ccc(Cl)cc2)c(C)n1C
- EC50: > 35 µM (inactive)

SMILES: CCCCC(=O)NC(c1ccccc1)c1ccc2cccnc2c1O (stereo not given)
- EC50: 17.4 µM
